Laboratory results from patent US11104671B2, “Insecticidal compounds” (SYNGENTA PARTICIPATIONS AG, priority 2017, dated 2021).
Where two headings read alike, the source gives them in different places.

Columns and labels:
Type in all cases: in vivo
[1] = system: Myzus persicae; assay: Myzus persicae (green peach aphid), intrinsic activity; details: 120 h
Excerpt: Myzus persicae (Green Peach Aphid). Intrinsic Activity
Test compounds prepared from 10,000 ppm DMSO stock solutions were applied by pipette into 24-well microtiter plates and mixed with sucrose solution. The plates were closed with a stretched Parafilm. A plastic stencil with 24 holes was placed onto the plate and infested pea seedlings were placed directly on the Parafilm. The infested plate was closed with a gel blotting paper and another plastic stencil and then turned upside down. The samples were assessed for mortality 5 days after infestation.

[2] = system: Plutella xylostella; assay: Plutella xylostella (diamond back moth), artificial diet, L2 larvae; details: 120 h, read-out: effect in at least one of the two categories (mortality or growth inhibition); for percent effect (mortality or growth inhibition) at 200 ppm: application rate 200 ppm, 5 days after infestation, L2 larvae
Experimental: Plutella xylostella (Diamond Back Moth)
(§1) 24-well microtiter plates with artificial diet were treated with aqueous test solutions prepared from 10,000 ppm DMSO stock solutions by pipetting. After drying, the plates were infested with L2 larvae (10 to 15 per well). The samples were assessed for mortality and growth inhibition in comparison to untreated samples 5 days after infestation.

[3] = system: Thrips tabaci; assay: Thrips tabaci (onion thrips), feeding/contact activity; details: foliar, 144 h
Experimental: Thrips tabaci (Onion thrips) Feeding/Contact Activity
(§2) Sunflower leaf discs were placed on agar in 24-well microtiter plates and sprayed with aqueous test solutions prepared from 10,000 ppm DMSO stock solutions. After drying the leaf discs were infested with a thrips population of mixed ages. The samples were assessed for mortality 6 days after infestation.

[4] = system: Euschistus heros; assay: Euschistus heros (neotropical brown stink bug), soybean leaves sprayed, N2 nymphs; details: 120 h, read-out: effect in at least one of the two categories (mortality or growth inhibition); for percent effect (mortality or growth inhibition) at 200 ppm: application rate 200 ppm, 5 days after infestation, N2 nymphs
Experimental: Euschistus heros (Neotropical Brown Stink Bug)
Soybean leaves on agar in 24-well microtiter plates were sprayed with aqueous test solutions prepared from 10,000 ppm DMSO stock solutions. After drying the leaves were infested with N2 nymphs. The samples were assessed for mortality and growth inhibition in comparison to untreated samples 5 days after infestation.

[5] = system: Diabrotica balteata; assay: Diabrotica balteata (corn root worm), maize sprouts sprayed, L2 larvae; details: 96 h, read-out: effect in at least one of the two categories (mortality or growth inhibition); for percent effect (mortality or growth inhibition) at 200 ppm: application rate 200 ppm, 4 days after infestation, L2 larvae
Experimental: Diabrotica Balteata (Corn Root Worm)
as §1, with “Maize sprouts placed onto an agar layer in 24-well” for “24-well”, “plates” for “plates with artificial diet”, “spraying.” for “pipetting.”, “(6” for “(10”, “10” for “15”, “4” for “5”

[6] = system: Spodoptera littoralis; assay: Spodoptera littoralis (Egyptian cotton leaf worm), cotton leaf discs, L1 larvae; details: foliar, 72 h, read-out: control (mortality, anti-feedant effect or growth inhibition)
Experimental: Spodoptera littoralis (Egyptian Cotton Leaf Worm)
Cotton leaf discs were placed onto agar in 24-well microtiter plates and sprayed with aqueous test solutions prepared from 10,000 ppm DMSO stock solutions. After drying the leaf discs were infested with five L1 larvae. The samples were assessed for mortality, anti-feeding effect, and growth inhibition in comparison to untreated samples 3 days after infestation. Control of Spodoptera littoralis by a test sample is given when at least one of the categories mortality, anti-feedant effect, and growth inhibition is higher than the untreated sample.

[7] = system: Tetranychus urticae; assay: Tetranychus urticae (two-spotted spider mite), feeding/contact activity; details: foliar, 192 h, read-out: mortality on mixed population (mobile stages)
Experimental: Tetranychus urticae (Two-Spotted Spider Mite): Feeding/Contact Activity
as §2, with “Bean” for “Sunflower”, “discs” for “discs were placed”, “were” for “and”, “mite” for “thrips”, “on mixed population (mobile stages) 8” for “6”

[8] = system: Myzus persicae; assay: Myzus persicae (green peach aphid), feeding/contact activity; details: foliar, 144 h
Experimental: Myzus persicae (Green Peach Aphid): Feeding/Contact Activity
Sunflower leaf discs were placed onto agar in a 24-well microtiter plate and sprayed with aqueous test solutions prepared from 10,000 ppm DMSO stock solutions. After drying, the leaf discs were infested with an aphid population of mixed ages. The samples were assessed for mortality 6 days after infestation.

[9] = test rate 12 ppm, 5 days after infestation, sucrose solution, infested pea seedlings, read-out: mortality
[10] = application rate 200 ppm, 6 days after infestation, sunflower leaf discs, mixed ages, read-out: mortality
[11] = application rate 200 ppm, 3 days after infestation, L1 larvae
[12] = application rate 200 ppm, 8 days after infestation, bean leaf discs

CS(=O)(=O)N1CC(NC(=O)c2ccc(C3=CSC(c4cc(Cl)c(Cl)c(Cl)c4)(C(F)(F)F)C3)cc2Cl)CO1 (stereo not shown) [Compound A1, 2-chloro-N-(2-methylsulfonylisoxazolidin-4-yl)-4-[2-(3,4,5-trichlorophenyl)-2-(trifluoromethyl)-3H-thiophen-4-yl]benzamide]
≥ 80%: mortality at 12 ppm [1, 9] | percent effect (mortality or growth inhibition) at 200 ppm [2] | mortality at 200 ppm [3, 10] | percent effect (mortality or growth inhibition) at 200 ppm [4] | percent effect (mortality or growth inhibition) at 200 ppm [5] | percent control (mortality, anti-feedant effect or growth inhibition) at 200 ppm [6, 11] | mortality at 200 ppm [7, 12]

Cc1cc(C2=NS[C@@](c3cc(Cl)cc(Cl)c3)(C(F)(F)F)C2)ccc1C(=O)NC1CON(S(C)(=O)=O)C1 (stereo partly drawn) [Compound A2, 4-[(5S)-5-(3,5-dichlorophenyl)-5-(trifluoromethyl)-4H-isothiazol-3-yl]-2-methyl-N-(2-methylsulfonylisoxazolidin-4-yl)benzamide]
≥ 80%: mortality at 12 ppm [1, 9] | percent effect (mortality or growth inhibition) at 200 ppm [2] | mortality at 200 ppm [8, 10] | mortality at 200 ppm [3, 10] | percent effect (mortality or growth inhibition) at 200 ppm [4] | percent effect (mortality or growth inhibition) at 200 ppm [5] | percent control (mortality, anti-feedant effect or growth inhibition) at 200 ppm [6, 11] | mortality at 200 ppm [7, 12]

Cc1cc(C2=COC(c3cc(Cl)cc(Cl)c3)(C(F)(F)F)C2)ccc1C(=O)NC1CON(S(C)(=O)=O)C1 (stereo not shown) [Compound A3, 4-[2-(3,5-dichlorophenyl)-2-(trifluoromethyl)-3H-furan-4-yl]-2-methyl-N-(2-methylsulfonylisoxazolidin-4-yl)benzamide]
≥ 80%: mortality at 12 ppm [1, 9] | percent effect (mortality or growth inhibition) at 200 ppm [2] | mortality at 200 ppm [3, 10] | percent effect (mortality or growth inhibition) at 200 ppm [4] | percent effect (mortality or growth inhibition) at 200 ppm [5] | percent control (mortality, anti-feedant effect or growth inhibition) at 200 ppm [6, 11] | mortality at 200 ppm [7, 12]

Cc1cc(C2=NO[C@](c3cc(Cl)cc(Cl)c3)(C(F)(F)F)[C@H]2Cl)ccc1C(=O)NC1CON(S(C)(=O)=O)C1 (stereo partly drawn) [Compound A4, 4-[(4S,5R)-4-chloro-5-(3,5-dichlorophenyl)-5-(trifluoromethyl)-4H-isoxazol-3-yl]-2-methyl-N-(2-methylsulfonylisoxazolidin-4-yl)benzamide]
≥ 80%: mortality at 12 ppm [1] | percent control (mortality or growth inhibition) at 200 ppm [2] | mortality at 200 ppm [8] | mortality at 200 ppm [3] | percent control (mortality or growth inhibition) at 200 ppm [4] | percent control (mortality or growth inhibition) at 200 ppm [5] | percent control (mortality, anti-feedant effect or growth inhibition) at 200 ppm [6] | mortality at 200 ppm [7]

Cc1cc(C2=NCC(c3cc(Cl)c(F)c(Cl)c3)(C(F)(F)F)C2)ccc1C(=O)N[C@H]1CON(S(=O)(=O)N(C)C)C1 (stereo partly drawn) [Compound A10, 4-[3-(3,5-dichloro-4-fluoro-phenyl)-3-(trifluoromethyl)-2,4-dihydropyrrol-5-yl]-N-[(4R)-2-(dimethylsulfamoyl)isoxazolidin-4-yl]-2-methyl-benzamide]
≥ 80%: percent effect (mortality or growth inhibition) at 200 ppm [2] | mortality at 200 ppm [8, 10] | mortality at 200 ppm [3, 10] | percent effect (mortality or growth inhibition) at 200 ppm [4] | percent effect (mortality or growth inhibition) at 200 ppm [5] | percent control (mortality, anti-feedant effect or growth inhibition) at 200 ppm [6, 11] | mortality at 200 ppm [7, 12]

Cc1cc(C2=COC(c3cc(Cl)cc(Cl)c3)(C(F)(F)F)C2)ccc1C(=O)N[C@H]1CON(S(=O)(=O)N(C)C)C1 (stereo partly drawn) [Compound A12, 4-[2-(3,5-dichlorophenyl)-2-(trifluoromethyl)-3H-furan-4-yl]-N-[(4R)-2-(dimethylsulfamoyl)isoxazolidin-4-yl]-2-methyl-benzamide]
≥ 80%: percent effect (mortality or growth inhibition) at 200 ppm [2] | mortality at 200 ppm [8, 10] | mortality at 200 ppm [3, 10] | percent effect (mortality or growth inhibition) at 200 ppm [4] | percent effect (mortality or growth inhibition) at 200 ppm [5] | percent control (mortality, anti-feedant effect or growth inhibition) at 200 ppm [6, 11] | mortality at 200 ppm [7, 12]

Cc1cc(C2=NS[C@@](c3cc(Cl)cc(Cl)c3)(C(F)(F)F)C2)ccc1C(=O)N[C@H]1CON(S(=O)(=O)N(C)C)C1 [Compound A13, 4-[(5S)-5-(3,5-dichlorophenyl)-5-(trifluoromethyl)-4H-isothiazol-3-yl]-N-[(4R)-2-(dimethylsulfamoyl)isoxazolidin-4-yl]-2-methyl-benzamide]
≥ 80%: percent effect (mortality or growth inhibition) at 200 ppm [2] | mortality at 200 ppm [8, 10] | mortality at 200 ppm [3, 10] | percent effect (mortality or growth inhibition) at 200 ppm [4] | percent effect (mortality or growth inhibition) at 200 ppm [5] | percent control (mortality, anti-feedant effect or growth inhibition) at 200 ppm [6, 11] | mortality at 200 ppm [7, 12]

Cc1cc(C2=NCC(c3cc(Cl)cc(Cl)c3)(C(F)(F)F)C2)ccc1C(=O)N[C@H]1CON(S(=O)(=O)N(C)C)C1 (stereo partly drawn) [Compound A14, 4-[3-(3,5-dichlorophenyl)-3-(trifluoromethyl)-2,4-dihydropyrrol-5-yl]-N-[(4R)-2-(dimethylsulfamoyl)isoxazolidin-4-yl]-2-methyl-benzamide]
≥ 80%: percent effect (mortality or growth inhibition) at 200 ppm [2] | mortality at 200 ppm [8, 10] | mortality at 200 ppm [3, 10] | percent effect (mortality or growth inhibition) at 200 ppm [4] | percent effect (mortality or growth inhibition) at 200 ppm [5] | percent control (mortality, anti-feedant effect or growth inhibition) at 200 ppm [6, 11] | mortality at 200 ppm [7, 12]

Cc1cc(N2CCC(c3cc(Cl)cc(Cl)c3)(C(F)(F)F)C2)ncc1C(=O)N[C@H]1CON(S(=O)(=O)N(C)C)C1 (stereo partly drawn) [Compound A15, 6-[3-(3,5-dichlorophenyl)-3-(trifluoromethyl)pyrrolidin-1-yl]-N-[(4R)-2-(dimethylsulfamoyl)isoxazolidin-4-yl]-4-methyl-pyridine-3-carboxamide]
≥ 80%: percent effect (mortality or growth inhibition) at 200 ppm [2] | percent effect (mortality or growth inhibition) at 200 ppm [4] | percent effect (mortality or growth inhibition) at 200 ppm [5] | percent control (mortality, anti-feedant effect or growth inhibition) at 200 ppm [6, 11] | mortality at 200 ppm [7, 12]

Cc1nc(N2CCC(c3cc(Cl)cc(Cl)c3)(C(F)(F)F)C2)ccc1C(=O)N[C@H]1CON(S(=O)(=O)N(C)C)C1 (stereo partly drawn) [Compound A16, 6-[3-(3,5-dichlorophenyl)-3-(trifluoromethyl)pyrrolidin-1-yl]-N-[(4R)-2-(dimethylsulfamoyl)isoxazolidin-4-yl]-2-methyl-pyridine-3-carboxamide]
≥ 80%: percent effect (mortality or growth inhibition) at 200 ppm [2] | mortality at 200 ppm [8, 10] | mortality at 200 ppm [3, 10] | percent effect (mortality or growth inhibition) at 200 ppm [4] | percent effect (mortality or growth inhibition) at 200 ppm [5] | percent control (mortality, anti-feedant effect or growth inhibition) at 200 ppm [6, 11] | mortality at 200 ppm [7, 12]

Cc1nc(C2=CC(c3cc(Cl)cc(Cl)c3)(C(F)(F)F)OC2)ccc1C(=O)N[C@H]1CON(S(=O)(=O)N(C)C)C1 (stereo partly drawn) [Compound A17, 6-[5-(3,5-dichlorophenyl)-5-(trifluoromethyl)-2H-furan-3-yl]-N-[(4R)-2-(dimethylsulfamoyl)isoxazolidin-4-yl]-2-methyl-pyridine-3-carboxamide]
≥ 80%: percent effect (mortality or growth inhibition) at 200 ppm [2] | mortality at 200 ppm [3, 10] | percent effect (mortality or growth inhibition) at 200 ppm [4] | percent effect (mortality or growth inhibition) at 200 ppm [5] | percent control (mortality, anti-feedant effect or growth inhibition) at 200 ppm [6, 11] | mortality at 200 ppm [7, 12]
